Laboratory results published in publication PMC9838834, “Improvement of Antialveolar echinococcosis efficacy of novel Albendazole-Bile acids Derivatives with Enhanced Oral Bioavailability” (PLOS Neglected Tropical Diseases, 2023).

How the values were obtained:
protoscolex (PSCs) [1] = experiment: Detection of protoscolex mortality / survival rate in vitro (trypan blue); type: cell-based, E. multilocularis; settings: 7 days; ABZ 10 μg/mL, ABZ-SO 10 μg/mL, ABZ-BA 13.45, 26.9, 53.8 μg/mL; liver homogenate + 0.2% DMSO; n = 3
Source text: (§1) Protoscoleces (PSCs) from E. multilocularis were collected aseptically from alveolar echinococcosis obtained from the abdominal cavity of gerbils in Qinghai Research Key Laboratory for Echinococcosis, China. The specific operation steps were as follows: (1) dissect the successfully preserved Echinococcus protoscoleces gerbil model, isolate cysts and wash the residual liver tissue and blood with sterile Penicillin-Streptomycin solution (penicillin (1500 U/ mL) + streptomycin (1000 U/ mL)). (2) Place the clean cysts in sterile glassware, cut them into a slurry, filter the original head section with sterile gauze, and rinse them with Penicillin-Streptomycin solution 3 times. (3) Slightly rotate and shake the filtrate, absorb the suspended connective tissue, impurities, inactivated PSCs, and excess Penicillin-Streptomycin solution in the upper layer, repeat several times and finally concentrate the pure PSCs into the test tube. Viability was assessed by muscular movement (evaluated under an optical microscope), the motility of flame cells, and the exclusion test with methylene blue. The PSCs were incubated in an RPMI 1640 medium containing 0.20 mg/mL liver homogenous serous, 100 U/mL penicillin, 100 μg/mL streptomycin and 10% calf serum at 37°C in a 5% CO2 atmosphere at a concentration of (1000–2000) PSCs/mL.
(§2) The PSCs were divided into blank control groups (Groups 1 and 2), positive control groups (Groups 3 and 4), and experimental groups (Groups 5 to 7). Group 1 was RPMI-1640 medium with 0.20 mg/mL liver homogenate; Group 2 was 0.2% DMSO medium with 0.2% DMSO; Group 3 was RPMI-1640 medium with 0.20 mg/mL liver homogenate and 0.2% DMSO, containing 10 μg/mL Albendazole; Group 4 was RPMI-1640 medium with 0.20 mg/mL liver homogenate and 0.2% DMSO, containing 10 μg/mL albendazole sulfoxide; Groups 5–7 were RPMI-1640 medium with 0.20 mg/mL liver homogenate and 0.2% DMSO, containing 13.45, 26.9 and 53.8 μg/mL ABZ-BA, with effective ABZ concentrations of 5, 10 and 20 μg/mL, respectively. The culture medium and drug were changed every 3 days for one week. PSCs samples (10 μL) were collected every day and stained with 0.4% trypan blue staining solution, observed under an inverted microscope, and photographed to record PSC mortality.

protoscolex (PSCs) [2] = experiment: Protoscolex microstructure by optical microscope and SEM; type: cell-based, E. multilocularis; settings: 5 days after treatment, 10 μg/mL
Source text: as §1, §2
For ultrastructural studies, 200 μL PSCs were taken from each group 5 days after treatment and fixed with 4% glutaraldehyde in sodium cacodylate buffer at 4°C for 72 hours. Samples were dehydrated by continuous incubation in increasing concentrations of ethanol (50–100%), and ethanol was removed by supercritical extraction. They were then sputter-coated with gold (100 Å thick) and examined on an FEI Quanta 200 scanning electron microscope operating at 20 kV.

[3] = Systemic pharmacokinetics in SD rats (UHPLC-MS); type: in vivo, Sprague-Dawley (SD) rats; settings: SD rats, oral 25 mg/kg
Experimental: A Dionex Ultimate 3000 RSLC system (Thermofisher) combined with an Accucore aQ C18 column (150 mm×2.1 mm, 2.6 μm, Thermo fisher) was used in the sample separation process. The separation speed was set at […] for all gradients. 1 μL of injection volume and a constant temperature of (25 ± 1°C were set for the column. The eluents were A, water with 0.1% formic acid (v/v) and B, methanol; the gradient program was as follows: 0–6 min, 8–40% B; 6–8 min, 40–100% B; 8–10 min, 100% B; 10–11 min, 100–8% B; 11–13 min, 8% B.
Heated electro-spray ionization (HE-SI) was paired with a Q-Orbitrap MS in the MS analysis. The flow rate of auxiliary, sheath and sweep gas was set at 35, 10, and 1 (arbitrary unit), respectively. A full MS-ddMS^2 mode was used to perform the analysis. The damping gas in the C-trap and nitrogen was used to stabilize the spraying. Temperatures of 350°C and 320°C were set and kept for the auxiliary gas heater and capillary. Under negative mode, 3.0 kV was adopted for the spray voltage, 60 V was used for the S-lens RF level, 50 ms was used for the maximum injection time, and 3.0 ^e6 was set as the automatic gain control target. Full MS-ddMS^2 scan ranged from 150.0000 to 800.0000 m/z. Precise molecular weight […] was used for qualitative analysis, the corresponding peak area was used for quantitative analysis, and MS^2 fragments were used for further qualitative analysis.
A cross-over design was employed with male SD rats (n = 7) to evaluate in vivo pharmacokinetics. The rats were subjected to fasting for one night before each administration and were fed 4 hours after administration. ABZ was administered by gavage (25 mg/kg). Blood was collected under isoflurane anesthesia at a flow rate of 2.0 mL/min. At 0.25, 0.5, 1, 2, 2.5, 3, 4, 6, 8, 12, and 24 hours after administration, 200–500 μL blood was collected from the orbital venous plexus and centrifuged at 13000 rpm for 5 min. The upper plasma was stored at—80°C for testing.
Plasma samples were thawed at room temperature, and 100 μL was added to an equal volume of mass spectrometry grade methanol, vortexed for 1 min, and centrifuged again at 13000 rpm for 5 min. 100 μL of the supernatant were added to 100 μL of 200 ng/mL mebendazole IS solution, vortexed for 1 min, and centrifuged again at 13000 rpm for 5 min. The resulting sample was injected by UHPLC-HR-ESI-MS with an injection volume of 1 μL. The pharmacokinetic study of SD rats was performed according to the standards recommended by the "Guidelines for the Care and Use of Laboratory Animals" (Animal Laboratory Resources Institute, 1995) and was approved by the Institutional Animal Care and Use Committee of Qinghai University.

SMILES	inhibitory effect on PSC survival rate (protoscolex (PSCs) [1])	PSC morphology under the SEM (protoscolex (PSCs) [2])	PSC morphology under the optical microscope (OM) (protoscolex (PSCs) [2])	mortality of PSCs (protoscolex (PSCs) [2]; vs blank groups)	detection in plasma 24 hours after administration [3]	shape of the drug time curve [3]	Frel (relative bioavailability) = AUCAbz(0–24)/AUCABZ (0–24) ([3]; n = 7) [%]
CCC[S+]([O-])c1ccc2[nH]c(NC(=O)OC)nc2c1 (stereo not shown) [ABZ-SO, albendazole sulfoxide]	time and concentration-dependent inhibitory effects	elongated and curled up	became vacuolar and transparent	significantly higher than in the blank groups	–	–	–
CCCSc1ccc2[nH]c(NC(=O)OC)nc2c1 [Abz]	–	–	–	–	still detected	double-peak	2613
